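Grown in 96-well plates, cells were treated for 48 hours with each compound at five concentrations. Insufficient inhibition: endpoint recorded as highest concentration tested. GI50 marks 50% less growth. TGI denotes the concentration required for complete inhibition of growth.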

Some test systems named below: SF-268 CNS; SK-MEL-28 melanoma; SR leukemia; UACC-62 melanoma; NCI-H23 lung; OVCAR-4 ovarian; K-562 leukemia; U251 CNS; SF-295 CNS; RPMI-8226 leukemia.
Assay in all cases: DTP human tumour cell line panel, 48 h

One may read the GI50 as the concentration that inhibits growth by half. In general, TGI refers to the concentration giving total growth inhibition. A lower TGI goes with greater sensitivity of the cells. `C[C@]12CC[C@@H]3c4ccc(O)cc4CC[C@H]3[C@@H]1CC[C@@H]2NS(=O)(=O)c1ccc(C(F)(F)F)cc1`: the GI50 in the assay on SF-268 CNS is 3.1 µM; in the assay on SK-MEL-28 melanoma it was 1.68 µM; in the assay with SR leukemia, 2.43 µM; in the assay with UACC-62 melanoma, 1.83 µM; with NCI-H23 lung, 2.08 µM; in the assay with OVCAR-4 ovarian, 1.42 µM. Also, the GI50 with K-562 leukemia is 3.16 µM; in the assay with U251 CNS, 1.75 µM; with SF-295 CNS, 1.91 µM; with RPMI-8226 leukemia, 2.51 µM. In addition, the TGI in the assay with SF-268 CNS stood at 11.8 µM; with SK-MEL-28 melanoma, 3.08 µM; in the assay with SR leukemia it was 7.5 µM; in the assay on UACC-62 melanoma, 3.55 µM; with NCI-H23 lung, 5.43 µM; with OVCAR-4 ovarian, 2.78 µM. Besides, the concentration for total growth inhibition (TGI) in the assay with K-562 leukemia came out at 8.69 µM; with U251 CNS, 3.3 µM; in the assay on SF-295 CNS, 3.9 µM; with RPMI-8226 leukemia, 6.79 µM.

With `CN1C(NC(=O)c2ccc(Cl)nc2)=NS(=O)(=O)c2cc(Cl)ccc21`, the GI50 in the assay on SF-268 CNS, in the assay with SK-MEL-28 melanoma, in the assay with SR leukemia, in the assay with UACC-62 melanoma, with NCI-H23 lung and in the assay with OVCAR-4 ovarian was more than 100 µM in each case. Also, the GI50 in the assay on K-562 leukemia, in the assay with U251 CNS, in the assay with SF-295 CNS and in the assay with RPMI-8226 leukemia was more than 100 µM throughout. For the same compound, the TGI with SF-268 CNS, in the assay with SK-MEL-28 melanoma, in the assay on SR leukemia, in the assay on UACC-62 melanoma, in the assay with NCI-H23 lung and in the assay with OVCAR-4 ovarian was more than 100 µM each time. The TGI with K-562 leukemia, in the assay on U251 CNS, with SF-295 CNS and with RPMI-8226 leukemia was more than 100 µM in each case.

For `C=C1C(=O)O[C@H]2[C@H]1CC/C(COC(=O)/C=C\C(=O)NCc1ccc(Cn3c(=O)sn(-c4ccc(C#N)cc4)c3=O)cc1)=C\CC[C@@]1(C)O[C@@H]21`, the GI50 is 0.724 µM with SF-268 CNS; 0.857 µM in the assay with SK-MEL-28 melanoma; 0.292 µM in the assay with SR leukemia; 0.722 µM with UACC-62 melanoma; 0.861 µM in the assay on NCI-H23 lung; 0.672 µM in the assay with OVCAR-4 ovarian. For the same compound, the GI50 with K-562 leukemia was 0.707 µM; in the assay on U251 CNS it was 0.759 µM; with SF-295 CNS it was 3.54 µM; with RPMI-8226 leukemia, 0.443 µM. For the same compound, the concentration for total growth inhibition (TGI) with SF-268 CNS turned out to be 1.41 µM; with SK-MEL-28 melanoma it was 1.61 µM; in the assay on SR leukemia, 50 µM; in the assay with UACC-62 melanoma, 1.45 µM; in the assay on NCI-H23 lung, 1.81 µM; in the assay on OVCAR-4 ovarian it was 1.37 µM. Also, the TGI in the assay with K-562 leukemia was found to be 50 µM; in the assay with U251 CNS, 1.62 µM; in the assay on SF-295 CNS, 9.7 µM; with RPMI-8226 leukemia it was 2.59 µM.

For `CCC(C)(O)c1cn(-c2cccc(S(=O)(=O)O)c2)nn1` (stereo unspecified), the TGI in the assay on SF-268 CNS, in the assay on SK-MEL-28 melanoma, in the assay with SR leukemia, in the assay on UACC-62 melanoma, in the assay on NCI-H23 lung and with OVCAR-4 ovarian was more than 100 µM throughout. Moreover, the TGI with K-562 leukemia, in the assay on U251 CNS, in the assay with SF-295 CNS and in the assay on RPMI-8226 leukemia was more than 100 µM each time.

Consider `Cc1[nH]c(N=Nc2ccccc2)nc1N=Nc1ccccc1`, for which the GI50 was 2.45 µM with SF-268 CNS; 4.5 µM in the assay with SK-MEL-28 melanoma; 0.418 µM in the assay with SR leukemia; 1.83 µM in the assay with UACC-62 melanoma; 3.28 µM in the assay with NCI-H23 lung; 3.06 µM in the assay on OVCAR-4 ovarian. In addition, the GI50 in the assay with K-562 leukemia was 3.55 µM; in the assay with U251 CNS, 2.83 µM; in the assay with SF-295 CNS, 1.93 µM; in the assay on RPMI-8226 leukemia, 1.17 µM. Also, the TGI is 11.5 µM with SF-268 CNS; more than 41 µM with SK-MEL-28 melanoma; 4.34 µM in the assay with UACC-62 melanoma; more than 36.3 µM with NCI-H23 lung; 55.4 µM with OVCAR-4 ovarian; more than 100 µM in the assay with K-562 leukemia. For the same compound, the TGI is more than 37.5 µM in the assay on U251 CNS, 11.6 µM in the assay on SF-295 CNS and 8.38 µM with RPMI-8226 leukemia.

Turning to `Cn1cc(-c2csc(-c3cccc(F)c3)n2)c2cccnc21`, the GI50 was 17.3 µM in the assay on SF-268 CNS; 17.6 µM with SK-MEL-28 melanoma; 13.5 µM in the assay on SR leukemia; 13.8 µM in the assay with UACC-62 melanoma; 17.3 µM in the assay with NCI-H23 lung; 27.6 µM in the assay on OVCAR-4 ovarian. Also, the GI50 in the assay with K-562 leukemia was 23.3 µM; in the assay with U251 CNS, 15.5 µM; with SF-295 CNS, 14.9 µM; in the assay on RPMI-8226 leukemia it was 25.2 µM. In addition, the TGI was 32.1 µM in the assay on SF-268 CNS; 32.8 µM in the assay on SK-MEL-28 melanoma; more than 100 µM in the assay on SR leukemia; 27.8 µM with UACC-62 melanoma; 36 µM in the assay with NCI-H23 lung; 78.6 µM in the assay on OVCAR-4 ovarian. In addition, the TGI with K-562 leukemia was 87.1 µM; in the assay with U251 CNS, 31.8 µM; in the assay with SF-295 CNS it was 33.7 µM; with RPMI-8226 leukemia it was more than 100 µM.

As to `CC(C)=[CH][Sb]([Br])([CH]=C(C)C)([CH]=C(C)C)[CH]=C(C)C`, the GI50 in the assay with SF-268 CNS was 11.7 µM; in the assay on SK-MEL-28 melanoma, 11.3 µM; in the assay on SR leukemia, 10.9 µM; with UACC-62 melanoma it was 11.1 µM; in the assay on NCI-H23 lung it was 6.12 µM; with OVCAR-4 ovarian, 22.7 µM. The GI50 was 6.7 µM with K-562 leukemia, 12.2 µM in the assay with U251 CNS, 17.3 µM in the assay on SF-295 CNS and 0.781 µM in the assay with RPMI-8226 leukemia. Moreover, the TGI with SF-268 CNS was 74.5 µM; in the assay with SK-MEL-28 melanoma it was more than 100 µM; in the assay on SR leukemia, more than 100 µM; in the assay with UACC-62 melanoma it was more than 100 µM; with NCI-H23 lung, 46.7 µM; in the assay on OVCAR-4 ovarian, more than 100 µM. Also, the TGI with K-562 leukemia is more than 100 µM; in the assay with U251 CNS, 79.3 µM; with SF-295 CNS, 53.4 µM; in the assay on RPMI-8226 leukemia it was 38.4 µM.

For the compound `CC12CCCC(CC(=O)c3[nH]c4ccccc4c31)C2` (stereo unspecified), the GI50 with SF-268 CNS was 1.94 µM; in the assay with SK-MEL-28 melanoma it was 2.03 µM; with SR leukemia, 0.238 µM; with UACC-62 melanoma it was 0.491 µM; in the assay on NCI-H23 lung, 2.07 µM; in the assay on OVCAR-4 ovarian it was 9.74 µM. For the same compound, the GI50 in the assay on K-562 leukemia is 0.345 µM; with U251 CNS, 0.689 µM; in the assay on SF-295 CNS it was 0.508 µM; with RPMI-8226 leukemia it was 0.656 µM. The TGI in the assay with SF-268 CNS was more than 65.2 µM; in the assay with SK-MEL-28 melanoma, more than 100 µM; in the assay on SR leukemia, 66.1 µM; with UACC-62 melanoma, more than 60.3 µM; in the assay with NCI-H23 lung, more than 63.1 µM; in the assay with OVCAR-4 ovarian, more than 90.8 µM. For the same compound, the total growth inhibition concentration (TGI) is more than 45.2 µM in the assay with K-562 leukemia, 34.7 µM in the assay with U251 CNS, 7.37 µM in the assay on SF-295 CNS and 12.7 µM with RPMI-8226 leukemia.

Regarding `O=C(NC1CCCCCC1)C1C(=O)N(C2CCCCCC2)C(=O)/C1=N\O` (stereo unspecified), the TGI is more than 100 µM in the assay with SF-268 CNS; 87 µM in the assay with SK-MEL-28 melanoma; 54 µM in the assay with SR leukemia; 48.6 µM in the assay on UACC-62 melanoma; 93.1 µM in the assay on NCI-H23 lung; more than 100 µM in the assay on OVCAR-4 ovarian. The TGI in the assay with K-562 leukemia was more than 100 µM; in the assay with U251 CNS it was 34.9 µM; in the assay with SF-295 CNS, more than 100 µM; with RPMI-8226 leukemia it was 83.3 µM.

For `COc1ccc(C2CC(=O)c3c(OC)cc(OC)cc3O2)cc1` (stereo unspecified), the GI50 in the assay with SF-268 CNS, in the assay on SK-MEL-28 melanoma, with SR leukemia, in the assay on UACC-62 melanoma, in the assay on NCI-H23 lung and in the assay on OVCAR-4 ovarian was more than 100 µM each time. For the same compound, the GI50 with K-562 leukemia, in the assay on U251 CNS, in the assay on SF-295 CNS and in the assay with RPMI-8226 leukemia was more than 100 µM in each case. Also, the concentration for total growth inhibition (TGI) with SF-268 CNS, in the assay with SK-MEL-28 melanoma, in the assay on SR leukemia, with UACC-62 melanoma, with NCI-H23 lung and in the assay with OVCAR-4 ovarian was more than 100 µM throughout. Moreover, the TGI in the assay with K-562 leukemia, in the assay on U251 CNS, with SF-295 CNS and in the assay on RPMI-8226 leukemia was more than 100 µM in each case.

Take `COC(=O)CSc1n[nH]c(-c2ccc(O)c([N+](=O)[O-])c2)n1`: the TGI in the assay with SF-268 CNS, in the assay with SK-MEL-28 melanoma, in the assay on SR leukemia, in the assay on UACC-62 melanoma, with NCI-H23 lung and in the assay with OVCAR-4 ovarian was more than 100 µM in each case. For the same compound, the TGI in the assay with K-562 leukemia, in the assay on U251 CNS, with SF-295 CNS and in the assay on RPMI-8226 leukemia was more than 100 µM in each case.

As to `COc1cc([N+](=O)[O-])ccc1NC(=O)C(F)(F)F`, the TGI in the assay on SF-268 CNS, in the assay on SK-MEL-28 melanoma, with SR leukemia, in the assay on UACC-62 melanoma, with NCI-H23 lung and with OVCAR-4 ovarian was more than 100 µM each time. In addition, the TGI with K-562 leukemia, in the assay on U251 CNS, in the assay with SF-295 CNS and with RPMI-8226 leukemia was more than 100 µM in each case.

On to `NCCCCn1c2c(c3ccccc3c1=O)C(=O)c1ccccc1-2`, for which the 50% growth inhibitory concentration (GI50) in the assay with SF-268 CNS is 0.208 µM; in the assay on SK-MEL-28 melanoma, 0.671 µM; in the assay on UACC-62 melanoma it was 0.0467 µM; in the assay on NCI-H23 lung it was 0.129 µM; in the assay on OVCAR-4 ovarian, 0.542 µM; with K-562 leukemia, 0.168 µM. The 50% growth inhibitory concentration (GI50) is 0.0485 µM in the assay with U251 CNS, 0.0726 µM in the assay on SF-295 CNS and 0.0887 µM in the assay on RPMI-8226 leukemia. In addition, the TGI in the assay on SF-268 CNS was found to be 1.86 µM; in the assay with SR leukemia, 0.0486 µM; in the assay with UACC-62 melanoma it was 0.422 µM; in the assay with NCI-H23 lung it was 0.655 µM; with OVCAR-4 ovarian it was 5.08 µM; in the assay with U251 CNS, 0.824 µM. The total growth inhibition concentration (TGI) with SF-295 CNS worked out at 0.753 µM; in the assay on RPMI-8226 leukemia, 0.932 µM.

(Values after PubChem BioAssay (NCI).)
